Laboratory results: ChEMBL document CHEMBL2150897, “Discovery of DS-8108b, a Novel Orally Bioavailable Renin Inhibitor” (ACS Med Chem Lett, 2012)
Residue numbers refer to the chain shown, from its start. pIC50: −log10 of the molar value.

Columns and labels:
[1] = Half life in cynomolgus monkey at 3 mg/kg, po; format: ADME, organism-based, Macaca fascicularis; design: dose 3 mg/kg, route oral; conditions: in vivo
[2] = AUC ( 0 to t) in cynomolgus monkey at 3 mg/kg, iv; format: ADME, organism-based, Macaca fascicularis; design: dose 3 mg/kg, route intravenous; conditions: plasma
[3] = system: Cynomolgus monkey; test: Ex vivo inhibition of plasma renin activity in cynomolgus monkey at 10 mg/kg, po administered after furosemide treatment measured after 24 hrs; format: functional; conditions: Macaca fascicularis
[4] = molecular target: T1, Cathepsin E (Homo sapiens, UniProt P14091); test: Inhibition of human cathepsin E
T1 sequence (P14091 whole entry): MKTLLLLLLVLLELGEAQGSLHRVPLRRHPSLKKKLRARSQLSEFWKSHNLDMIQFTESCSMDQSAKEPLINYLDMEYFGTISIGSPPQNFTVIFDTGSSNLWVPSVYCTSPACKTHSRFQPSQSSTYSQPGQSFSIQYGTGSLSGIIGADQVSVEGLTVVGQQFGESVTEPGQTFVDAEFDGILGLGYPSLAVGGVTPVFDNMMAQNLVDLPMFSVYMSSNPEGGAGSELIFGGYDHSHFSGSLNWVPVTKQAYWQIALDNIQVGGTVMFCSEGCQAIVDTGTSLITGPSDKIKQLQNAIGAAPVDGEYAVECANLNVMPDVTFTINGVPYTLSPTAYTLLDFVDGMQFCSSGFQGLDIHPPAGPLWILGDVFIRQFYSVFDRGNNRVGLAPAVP

[5] = molecular target: Cathepsin D (Homo sapiens, UniProt P07339); test: Inhibition of human cathepsin D
Sequence of Cathepsin D (P07339 65-162 limits assumed): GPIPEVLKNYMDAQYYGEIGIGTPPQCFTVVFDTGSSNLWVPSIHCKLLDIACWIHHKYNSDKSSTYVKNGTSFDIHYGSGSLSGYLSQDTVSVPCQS
Sequence of Cathepsin D (P07339 169-412 limits assumed): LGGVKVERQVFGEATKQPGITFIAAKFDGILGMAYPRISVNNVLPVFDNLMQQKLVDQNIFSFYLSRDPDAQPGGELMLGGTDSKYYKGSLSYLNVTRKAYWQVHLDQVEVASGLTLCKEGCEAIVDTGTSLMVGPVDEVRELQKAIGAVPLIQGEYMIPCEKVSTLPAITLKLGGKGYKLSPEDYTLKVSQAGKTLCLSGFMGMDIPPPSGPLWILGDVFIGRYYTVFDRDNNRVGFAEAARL

[6] = system: Cynomolgus monkey; test: Ex vivo inhibition of plasma renin activity in po dosed cynomolgus monkey administered after furosemide treatment measured up to 24 hrs; format: functional, organism-based; conditions: Macaca fascicularis
[7] = system: Salmonella typhimurium; test: Mutagenic activity in Salmonella typhimurium in presence of S9 mixture; format: toxicity, organism-based; conditions: salmonella enterica subsp. enterica serovar typhimurium
[8] = system: Cynomolgus monkey; test: Ex vivo inhibition of plasma renin activity in cynomolgus monkey at 3 mg/kg, po administered after furosemide treatment measured after 24 hrs; format: functional; conditions: Macaca fascicularis
[9] = Clearance in cynomolgus monkey at 3 mg/kg, iv; format: ADME, organism-based, Macaca fascicularis; design: dose 3 mg/kg, route intravenous; conditions: in vivo
[10] = system: Cynomolgus monkey; test: Cardiotoxicity in telemetered cynomolgus monkey assessed as change in QTc interval at 1000 mg/kg, po administered as single dose measured up to 24 hrs; format: toxicity, organism-based, Macaca fascicularis; design: dose 1000 mg/kg, route oral; conditions: in vivo
[11] = system: Salmonella typhimurium; test: Mutagenic activity in Salmonella typhimurium; format: toxicity, organism-based; conditions: salmonella enterica subsp. enterica serovar typhimurium
[12] = Inhibition of HIV protease; design: species or system Human immunodeficiency virus
[13] = system: Cynomolgus monkey; test: Cardiotoxicity in telemetered cynomolgus monkey assessed as change in QRS width at 1000 mg/kg, po administered as single dose measured up to 24 hrs; format: toxicity, organism-based, Macaca fascicularis; design: dose 1000 mg/kg, route oral; conditions: in vivo
[14] = Cmax in cynomolgus monkey at 3 mg/kg, po; format: ADME, organism-based, Macaca fascicularis; design: dose 3 mg/kg, route oral; conditions: in vivo
[15] = Half life in cynomolgus monkey at 10 mg/kg, po; format: ADME, organism-based, Macaca fascicularis; design: dose 10 mg/kg, route oral; conditions: in vivo
[16] = Oral bioavailability in cynomolgus monkey at 3 mg/kg; format: ADME, organism-based, Macaca fascicularis; conditions: in vivo
[17] = Inhibition of Cytochrome P450; format: ADME
[18] = molecular target: T2, Renin (Macaca fascicularis, UniProt Q6DLS0); test: Inhibition of cynomolgus monkey plasma renin activity after 60 mins by competitive RIA
T2 sequence (Q6DLS0 whole entry): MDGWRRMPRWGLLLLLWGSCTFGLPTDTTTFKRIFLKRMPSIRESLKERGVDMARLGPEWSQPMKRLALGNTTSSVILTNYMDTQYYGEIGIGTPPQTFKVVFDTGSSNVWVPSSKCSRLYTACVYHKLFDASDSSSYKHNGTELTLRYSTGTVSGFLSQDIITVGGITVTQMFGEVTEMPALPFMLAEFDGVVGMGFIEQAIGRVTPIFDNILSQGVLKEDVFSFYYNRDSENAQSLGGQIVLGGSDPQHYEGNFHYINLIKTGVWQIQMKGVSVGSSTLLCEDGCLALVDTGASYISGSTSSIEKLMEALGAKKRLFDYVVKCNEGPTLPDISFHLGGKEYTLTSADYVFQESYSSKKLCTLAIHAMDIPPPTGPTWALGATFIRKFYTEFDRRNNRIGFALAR

[19] = Volume of distribution at steady state in cynomolgus monkey at 3 mg/kg, iv; format: ADME, organism-based, Macaca fascicularis; design: dose 3 mg/kg, route intravenous; conditions: in vivo, read-out: Vdss
[20] = AUC ( 0 to t) in cynomolgus monkey at 10 mg/kg, po; format: ADME, organism-based, Macaca fascicularis; design: dose 10 mg/kg, route oral; conditions: plasma
[21] = Cmax in cynomolgus monkey at 10 mg/kg, po; format: ADME, organism-based, Macaca fascicularis; design: dose 10 mg/kg, route oral; conditions: in vivo
[22] = system: Cynomolgus monkey; test: Antihypertensive activity in po dosed cynomolgus monkey assessed as reduction in mean arterial pressure administered as single dose 3 days prior to furosemide treatment measured up to 12 hrs; format: functional, organism-based; conditions: Macaca fascicularis; Artery
[23] = Inhibition of human pepsin
[24] = Tmax in cynomolgus monkey at 3 mg/kg, po; format: ADME, organism-based, Macaca fascicularis; design: dose 3 mg/kg, route oral; conditions: in vivo
[25] = Tmax in cynomolgus monkey at 10 mg/kg, po; format: ADME, organism-based, Macaca fascicularis; design: dose 10 mg/kg, route oral; conditions: in vivo
[26] = Half life in cynomolgus monkey at 3 mg/kg, iv; format: ADME, organism-based, Macaca fascicularis; design: dose 3 mg/kg, route intravenous; conditions: in vivo
[27] = molecular target: Sodium channel protein type 5 subunit alpha (Homo sapiens, UniProt Q14524); test: Inhibition of human Nav 1.5 at 100 uM
Sequence of Sodium channel protein type 5 subunit alpha (Q14524 whole entry): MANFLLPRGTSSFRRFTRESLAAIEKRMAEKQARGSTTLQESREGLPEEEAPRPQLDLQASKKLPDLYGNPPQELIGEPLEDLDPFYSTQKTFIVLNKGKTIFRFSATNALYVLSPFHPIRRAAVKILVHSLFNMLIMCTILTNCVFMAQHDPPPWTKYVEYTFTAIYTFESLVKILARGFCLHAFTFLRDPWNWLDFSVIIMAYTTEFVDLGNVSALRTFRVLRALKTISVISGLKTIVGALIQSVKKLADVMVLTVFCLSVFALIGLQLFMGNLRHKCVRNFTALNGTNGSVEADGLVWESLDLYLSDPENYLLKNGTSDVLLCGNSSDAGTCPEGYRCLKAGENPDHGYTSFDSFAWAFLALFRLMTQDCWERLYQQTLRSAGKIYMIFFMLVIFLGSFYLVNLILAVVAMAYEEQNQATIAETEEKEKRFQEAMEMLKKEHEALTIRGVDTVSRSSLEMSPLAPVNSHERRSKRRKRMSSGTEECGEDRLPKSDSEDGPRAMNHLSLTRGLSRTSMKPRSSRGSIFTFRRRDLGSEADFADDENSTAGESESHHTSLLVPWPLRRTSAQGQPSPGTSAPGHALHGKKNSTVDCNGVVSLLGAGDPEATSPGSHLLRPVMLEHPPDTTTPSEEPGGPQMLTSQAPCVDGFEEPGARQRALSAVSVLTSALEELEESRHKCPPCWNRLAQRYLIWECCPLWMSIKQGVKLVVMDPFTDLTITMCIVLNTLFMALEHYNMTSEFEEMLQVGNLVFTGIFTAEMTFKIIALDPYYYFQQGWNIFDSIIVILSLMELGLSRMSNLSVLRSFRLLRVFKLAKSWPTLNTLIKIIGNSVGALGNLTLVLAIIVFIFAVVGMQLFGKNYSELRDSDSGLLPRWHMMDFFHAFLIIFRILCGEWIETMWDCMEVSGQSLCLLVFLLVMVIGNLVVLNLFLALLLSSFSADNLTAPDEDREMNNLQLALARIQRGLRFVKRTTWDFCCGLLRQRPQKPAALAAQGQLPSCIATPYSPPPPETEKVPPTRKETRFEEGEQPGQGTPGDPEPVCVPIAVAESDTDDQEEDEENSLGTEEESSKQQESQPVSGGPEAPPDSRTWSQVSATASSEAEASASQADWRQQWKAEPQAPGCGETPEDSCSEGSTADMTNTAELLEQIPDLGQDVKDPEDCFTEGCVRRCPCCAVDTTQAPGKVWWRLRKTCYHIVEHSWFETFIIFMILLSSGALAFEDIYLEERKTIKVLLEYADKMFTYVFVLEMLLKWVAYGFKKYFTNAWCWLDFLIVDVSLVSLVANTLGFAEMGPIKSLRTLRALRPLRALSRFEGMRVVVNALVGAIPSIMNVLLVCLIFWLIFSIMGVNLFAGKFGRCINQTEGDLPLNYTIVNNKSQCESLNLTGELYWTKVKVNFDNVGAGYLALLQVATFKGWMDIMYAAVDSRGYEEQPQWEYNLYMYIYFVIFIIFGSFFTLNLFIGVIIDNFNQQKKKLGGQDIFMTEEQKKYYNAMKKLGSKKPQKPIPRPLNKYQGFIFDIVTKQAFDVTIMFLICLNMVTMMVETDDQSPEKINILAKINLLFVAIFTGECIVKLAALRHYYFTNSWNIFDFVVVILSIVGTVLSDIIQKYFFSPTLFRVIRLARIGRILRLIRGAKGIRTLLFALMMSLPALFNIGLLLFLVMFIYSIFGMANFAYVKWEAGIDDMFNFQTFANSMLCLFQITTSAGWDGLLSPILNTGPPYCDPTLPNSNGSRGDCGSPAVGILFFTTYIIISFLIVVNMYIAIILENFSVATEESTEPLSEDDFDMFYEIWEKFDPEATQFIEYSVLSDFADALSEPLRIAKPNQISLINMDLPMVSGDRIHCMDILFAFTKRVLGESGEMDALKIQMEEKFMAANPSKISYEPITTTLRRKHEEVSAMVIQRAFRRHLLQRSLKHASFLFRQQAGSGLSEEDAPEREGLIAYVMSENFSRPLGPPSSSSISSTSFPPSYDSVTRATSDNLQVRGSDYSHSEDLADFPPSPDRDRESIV

[28] = molecular target: Voltage-gated inwardly rectifying potassium channel KCNH2 (Homo sapiens, UniProt Q12809); test: Inhibition of human ERG at 100 uM
Sequence of Voltage-gated inwardly rectifying potassium channel KCNH2 (Q12809 whole entry): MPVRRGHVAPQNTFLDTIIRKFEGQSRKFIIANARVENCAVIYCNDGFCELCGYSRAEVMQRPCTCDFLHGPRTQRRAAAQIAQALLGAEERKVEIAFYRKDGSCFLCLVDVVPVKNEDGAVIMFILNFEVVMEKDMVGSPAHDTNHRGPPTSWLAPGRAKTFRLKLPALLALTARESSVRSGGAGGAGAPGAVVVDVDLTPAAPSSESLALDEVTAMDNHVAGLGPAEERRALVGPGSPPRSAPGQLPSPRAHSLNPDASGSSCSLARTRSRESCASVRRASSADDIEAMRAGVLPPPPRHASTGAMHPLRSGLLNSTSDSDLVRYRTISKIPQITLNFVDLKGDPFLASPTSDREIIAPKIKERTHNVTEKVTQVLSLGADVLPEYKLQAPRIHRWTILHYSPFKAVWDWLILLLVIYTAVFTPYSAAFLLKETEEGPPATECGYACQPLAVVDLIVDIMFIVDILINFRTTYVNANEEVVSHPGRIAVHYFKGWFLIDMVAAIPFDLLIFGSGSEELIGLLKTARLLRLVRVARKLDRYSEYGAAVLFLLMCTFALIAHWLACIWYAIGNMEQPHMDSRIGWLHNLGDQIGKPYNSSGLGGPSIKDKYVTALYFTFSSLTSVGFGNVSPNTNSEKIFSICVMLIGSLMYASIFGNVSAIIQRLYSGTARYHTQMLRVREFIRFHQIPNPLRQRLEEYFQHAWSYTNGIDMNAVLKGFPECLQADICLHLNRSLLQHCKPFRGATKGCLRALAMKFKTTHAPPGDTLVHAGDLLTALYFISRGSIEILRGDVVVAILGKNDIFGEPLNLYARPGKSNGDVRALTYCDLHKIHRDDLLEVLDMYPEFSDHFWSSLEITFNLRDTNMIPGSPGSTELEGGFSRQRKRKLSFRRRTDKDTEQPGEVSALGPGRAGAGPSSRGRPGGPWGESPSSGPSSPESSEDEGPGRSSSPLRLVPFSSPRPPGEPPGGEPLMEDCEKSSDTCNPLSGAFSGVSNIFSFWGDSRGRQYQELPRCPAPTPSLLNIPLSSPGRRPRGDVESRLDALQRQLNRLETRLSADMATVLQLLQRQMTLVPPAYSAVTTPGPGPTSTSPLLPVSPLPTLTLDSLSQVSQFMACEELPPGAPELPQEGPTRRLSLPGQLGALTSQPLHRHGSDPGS

[29] = molecular target: T3, Renin (Homo sapiens, UniProt P00797); test: Inhibition of human recombinant renin compound treated for 10 mins before substrate addition measured after 90 mins by fluorescence method
T3 sequence (P00797 whole entry): T2 sequence (Q6DLS0 whole entry) with A68T, L214I, A235S

[30] = system: Cynomolgus monkey; test: Ex vivo inhibition of plasma renin activity in cynomolgus monkey at 3 to 10mg/kg, po administered after furosemide treatment measured after 24 hrs relative to aliskiren hemifumarate; format: functional, Macaca fascicularis
[31] = AUC ( 0 to t) in cynomolgus monkey at 3 mg/kg, po; format: ADME, organism-based, Macaca fascicularis; design: dose 3 mg/kg, route oral; conditions: plasma
[32] = molecular target: T3, Renin; test: Inhibition of human plasma renin activity after 60 mins by competitive RIA
[33] = Oral bioavailability in cynomolgus monkey at 10 mg/kg; format: ADME, organism-based, Macaca fascicularis; conditions: in vivo

Work on CC[C@H](C[C@H](O)[C@@H](N)CN1CC(=O)N(c2ccccc2Cl)CC1(C)C)C(=O)NC1C2CC3CC1CC(O)(C3)C2.O.O=C(O)/C=C/C(=O)O (stereo partly drawn) yielded a half-life [1] of 306 min, an AUC(0-t) [2] of 15500 ng·h/mL and an inhibition in vivo at 10 mg/kg [3] of 65%. For the same molecule, the pIC50 [4] was less than 5.00, the pIC50 [5] was less than 5.00 and the inhibition [6] was “Dose-dependent effect”. For the same molecule, the Activity [7] was “Non-toxic”, the inhibition in vivo at 3 mg/kg [8] was 65% and the clearance [9] was 3.59 mL/min/kg. For the same molecule, the Activity [10] was “Non-toxic”, the Activity [11] was “Non-toxic” and the pIC50 [12] was less than 5.00. The Activity [13] was “Non-toxic”, the Cmax [14] was 102 ng/mL and the half-life [15] was 324 min. The bioavailability [16] was 4.1%, the pIC50 [17] was less than 5.00 and the pIC50 [18] was 8.20. It also gave a Vd [19] of 1.12 L/kg, an AUC(0-t) [20] of 2880 ng·h/mL and a Cmax [21] of 399 ng/mL. The Activity [22] was “Dose-dependent effect”, the pIC50 [23] was less than 5.00 and the Tmax [24] was 3 h. The Tmax [25] was 2.3 h, the half-life [26] was 468 min and the “inhibition (INH)” value [27] was “Not Active”. The “inhibition (INH)” value [28] was “Not Active”, the pIC50 [29] was 9.05 and the Ratio [30] was 3. For the same molecule, the AUC(0-t) [31] was 685 ng·h/mL, the pIC50 [32] was 8.72 and the bioavailability [33] was 5.3%.
